In ChEMBL document CHEMBL1122751, “Structure-activity relationships of phenytoin-like anticonvulsant drugs” (1984) one finds ED50 data, which are given here for six molecules.

What is called ED50 is the dose at which the effect has come halfway, by size or by number of responders. Low values mean an effect at a small dose, high ones a need for a large dose.

The assay deals with Mus musculus. In words: Antiepileptic potency in the maximal electroshock seizure test. Compound was administered orally to male NMRI mice. The following applies: po. It is filed as functional.
In the case of `CC1CC(c2ccccc2)(c2ccccc2)C(=O)N1C` (stereo unspecified), the ED50 was found to be 3830 µmol/kg.
Regarding `CN1C(=O)CC(c2ccccc2)(c2ccccc2)C1=O`, the ED50 stood at 357 µmol/kg.
The molecule `O=C1CC(c2ccccc2)(c2ccccc2)C(=O)N1` displayed an ED50 of 107 µmol/kg.
In turn, `O=C1NC(=O)C(c2ccccc2)(c2ccccc2)N1` [PHENYTOIN] returned a 50% effective dose (ED50) of 28 µmol/kg.
Molecule `O=C1NCNC1(c1ccccc1)c1ccccc1` [DOXENITOIN] displayed an ED50 of 129 µmol/kg.
For the molecule `CN1C(=O)NC(c2ccccc2)(c2ccccc2)C1=O`, it took a dose of 149 µmol/kg to reach the 50% effect level (ED50).
